Columns and labels:
HCV genotype 1b replicon = assay: HCV replicon assay; type: cell-based; conditions: Hepatitis C virus, 72 h, Zluc (Huh-7-derived) cells, luciferase reporter, 72 hours; read-out: HCV Replicon EC50
Procedure: Huh-7-derived cell line (Zluc) that harbors an HCV genotype 1b replicon and a luciferase reporter gene was grown in Dulbecco's Modified Eagle Medium (DMEM) supplemented with 10% fetal bovine serum, 2 mM GlutaMAX, 1% MEM nonessential amino acids, 100 IU/mL penicillin, 100 μg/mL streptomycin, and 0.5 mg/mL Geneticin® (G418). For dose response testing the cells were seeded in 96-well plates at 7.5×10^3 cells per well in a volume of 50 μL, and incubated at 37° C./5% CO2. Drug solutions were made up freshly in Huh-7 media as 2× stocks. Ten additional 5-fold dilutions were prepared from these stocks in DMEM without G418. At least three hours after Zluc cells were seeded, drug treatment was initiated by adding 50 μL of drug dilutions to the plates in duplicate. Final concentrations of drug ranged from 100 μM to […]. Cells were then incubated at 37° C./5% CO2. Alternatively, compounds were tested at two concentrations (1 μM and 10 μM). […] For this, media was removed from the plates via gentle tapping. Fifty microliters of ONE-glo luciferase assay reagent was added to each well. The plates were shaken gently for 3 min at room temperature and luminescence was measured on a Victor^3 V 1420 multilabel counter (Perkin Elmer) with a 1 second read time using a 700 nm cut-off filter. The EC50 values were calculated from dose response curves from the resulting best-fit equations determined by Microsoft Excel and XLfit 4.1 software. When screening at two fixed concentrations, the results were expressed as % inhibition at 1 μM and 10 μM.

fresh mouse hepatocyte = assay: Release of active metabolite in primary hepatocytes (mouse); type: in vitro ADME; conditions: 10 μM
Procedure: (§1) Plates of fresh human and mouse hepatocytes were obtained on ice. The medium was removed and replaced with hepatocyte culture medium (William's E supplemented with penicillin-streptomycin, 1% L-glutamine, 1% insulin-transferrin-selenium and 0.1 μM Dexamethasone (Invitrogen) or with Invitro GRO HI medium complemented with Torpedo antibiotics (Celsis)). Cells were left overnight in an incubator at 37° C. to acclimatize to culture and the medium.
(§2) Hepatocyte incubations were conducted at a final volume of 0.5 mL hepatocyte culture medium/well (0.8 million cells/well for human and 0.5 million cells/well for mouse; 12 well plate no overlay, collagen coat). Culture medium from overnight incubation of cells was removed and replaced with fresh medium, pre-warmed to 37° C., containing 10 μM of test compound from a stock solution in DMSO (final DMSO concentration was 0.1%). At each specific time point, incubation medium was removed and cell monolayers were carefully washed two times with ice-cold PBS. Following the last wash, all PBS was carefully removed and 1.0 mL of extraction solution (ice-cold 70% methanol/30% water) added. Cells were scraped off and suspended in the extraction solution, transferred to 2 mL polypropylene microfuge tubes and intracellular contents extracted overnight at −20° C.
After the overnight treatment the cellular extracts were prepared by centrifugation at 16,000×g for 10 min to remove cellular debris. The remaining sample was then dried using a refrigerated centrivap concentrator. Dry extracts were reconstituted in 1000 μL of HPLC-grade water and centrifuged at 16,000×g for 10 min. Aliquots (100 μL each) of the supernatant were transferred into a 96 well plate and internal standard (4 ng/mL final concentration) was added as the internal standard (IS) for LC-MS/MS analysis.
The incubation time points were 6, 24 and 48 hours for human hepatocytes and 1, 4, 8, 12 and 24 hours for mouse hepatocytes.

Huh-7 cells = assay: Release of active metabolite in Huh-7 cells; type: in vitro ADME, human
Procedure: Huh-7 cells were plated in 1 mL culture medium (DMEM, containing glucose, L-glutamine and sodium pyruvate, 10% FBS, 100 IU/mL penicillin, 100 μg/mL streptomycin, 2 mM GlutaMAX, 1% MEM non-essential amino acids) at the concentration 0.8, 0.4 and 0.2 million cells per well on 6 well plates for 24, 48 and 72 hr treatment, respectively. Plated cells were incubated overnight at 37° C. in an incubator.
The following morning test compound was diluted to 20 μM from a stock solution in DMSO in fresh culture medium pre-warmed to 37° C. and 1 mL of the solution/well was added to cells. A final medium volume per well was 2.0 mL, test compound concentration in well was 10 μM and final DMSO concentration was 0.1%.
After 24, 48 or 72 hr, the medium was carefully removed and cell monolayers were washed twice with 2 mL ice-cold PBS per well. Following the last wash, all PBS was carefully removed and 1.0 mL of extraction solution (ice-cold 70% methanol) added. The plate was tightly covered with Parafilm, plastic plate cover and Parafilm again and an intracellular content was extracted at −20° C. for 24 hr.
After 24 hr the extracts were transferred into polypropylene microfuge tubes and dry on a refrigerated centrivap concentrator. Dry residues were reconstituted in 250 μL of HPLC-grade water and centrifuged at 16,000×g for 10 min. Aliquots (100 μL each) of the supernatants were transferred into a 96 well plate and internal standard (4 ng/mL final concentration) was added as the internal standard (IS) for LC-MS/MS analysis.

Zluc cells = assay: Cytotoxicity evaluation in Zluc cells (CellTiter-Blue); type: cell-based, human; conditions: read-out: HCV Replicon CC50
Procedure: For cytotoxicity evaluation, Zluc cells were treated with compound as described herein, and cell viability was monitored using the CellTiter-Blue Cell Viability Assay (Promega) by adding 20 μL of the assay solution to each well. The plates were then incubated at 37° C./5% CO2 for at least 3 hours.

fresh human hepatocytes = assay: Release of active metabolite in primary hepatocytes (human); type: in vitro ADME; conditions: 10 μM
Procedure: as §1
as §2, with “−20° C. […]” for “−20° C.”

[1] = Plasma and liver PK after single oral dose (Example 4C); type: in vivo, CD-1 mice; conditions: at 1 μmol/kg; single oral dose 10 mg/kg for 804a or 25 mg/kg for 804b
Procedure: Plasma samples were analyzed for 2′-methyl-2′-fluorouridine (2′-Me-2′-F-U) by LC-MS/MS. The internal standard (IS) was D3-2′-F-2′-Me-G. For protein precipitation and extraction, each plasma sample (50 μL) was treated with 500 μL of 0.2% formic acid in acetonitrile and 20 μL of the internal standard working solution. After vortexing and centrifugation, 500 μL of the sample extracts were transferred to a new plate, dried under N2 at ˜28° C. and reconstituted with 75 μL of 0.2% FA in water. The extracts were chromatographed on an Aquasil C18 column using a gradient system of 0.2% formic acid in water and acetonitrile. The analytes were detected and quantified by tandem mass spectrometry in positive ion mode on an MDS Sciex API5000 equipped with a Turbo Ionspray® interface. The calibration range was 0.500 (LLOQ) to 200 ng/mL in mouse plasma. The corresponding range for molar units is 1.92 to 769 pmol/mL.
Liver samples were analyzed for the active species 2′-methyl-2′-fluorouridine triphosphate (2′-Me-2′-F—U TP) by LC-MS/MS. […] Internal standard solution was added to the homogenate followed by neutralization with 20% ammonium hydroxide solution and addition of 500 μL 1% formic acid. The tissue samples were extracted by weak anion exchange solid phase extraction (SPE). […]

cathepsin A (CatA) = biological target: T1, cathepsin A (CatA) (Homo sapiens, UniProt P10619); assay: Hydrolysis of prodrugs by Cathepsin A; type: in vitro ADME
T1 sequence (P10619 29-326 limits assumed): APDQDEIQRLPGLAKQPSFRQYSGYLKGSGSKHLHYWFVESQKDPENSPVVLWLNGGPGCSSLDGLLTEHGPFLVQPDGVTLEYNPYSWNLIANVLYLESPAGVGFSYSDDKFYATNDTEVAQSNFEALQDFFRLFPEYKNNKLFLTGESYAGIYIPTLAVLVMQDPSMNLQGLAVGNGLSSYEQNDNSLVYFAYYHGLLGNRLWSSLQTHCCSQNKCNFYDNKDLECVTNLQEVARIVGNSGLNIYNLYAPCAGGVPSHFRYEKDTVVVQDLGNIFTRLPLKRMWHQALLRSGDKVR
T1 sequence (P10619 327-480 limits assumed): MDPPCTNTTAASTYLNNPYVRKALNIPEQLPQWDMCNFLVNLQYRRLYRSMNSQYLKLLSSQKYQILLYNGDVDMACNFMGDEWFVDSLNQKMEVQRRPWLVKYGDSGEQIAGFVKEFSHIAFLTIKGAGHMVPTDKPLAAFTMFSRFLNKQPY
Procedure: CatA, cathepsin L (CatL) and CES1 were purchased from R & D Systems (Minneapolis, Minn.). Prior to the enzymatic hydrolysis reactions, CatA was activated according to the manufacturer's instruction. Briefly, CatA (0.05 μg/μL) was incubated with CatL (0.005 μg/μL) for 30 min at 37° C. in 25 mM MES pH 6.0 containing 5 mM DTT. The reaction was stopped by addition of the CatL specific inhibitor E64 (10 μM).
The CatA assay was performed at 37° C. The reaction mixture contained 25 mM MES buffer pH 6.0, 100 mM NaCl, 4 mM DTT and 100 μM of the compound. The reaction was started by addition of the activated CatA enzyme to a final concentration of 0.005 μg/μL. […] Reactions were stopped by mixing the sample with an equal volume of ice-cold methanol, and were loaded on a HPLC for analysis.

[2] = Liver TP formation and liver targeting in vivo (Example 6, Table 7); design: species or system mice and monkey
Text: The in vitro antiviral inactivity of Z4 and Z2 is thought to reflect an inability of Huh-7 replicon cells to metabolize the prodrug moiety.

Hydrolysis by CatA (cathepsin A (CatA))	CatA hydrolysis (cathepsin A (CatA); @ 18 h, 100 μM compound, 37° C., pH 6.0) [%]	Liver TP [2] [pmol·h/g]	Huh-7 AUC0-72 (Huh-7 cells; Table 7) [pmol*hr/10^6cells]	SMILES	EC50 (HCV genotype 1b replicon) [nM]	MsH AUC (fresh mouse hepatocyte) [pmol.hr/mill cells]	MsH Cmax (fresh mouse hepatocyte) [pmol/mill cells]	Huh-7 TP AUC (Huh-7 cells; 10 μM test compound) [pmol.hr/mill cells]	Huh-7 TP Cmax (Huh-7 cells; 10 μM test compound) [pmol/mill cells]	CC50 (Zluc cells) [nM]	FHH TP AUC (fresh human hepatocytes) [pmol.hr/mill cells]	FHH TP Cmax (fresh human hepatocytes) [pmol/mill cells]	Ms Plasma 2′-Me-2′-F-U AUC [1] [M·s]
				CC(C)OC(=O)[C@H](C)NP(=O)(OC[C@H]1O[C@@H](n2ccc(=O)[nH]c2=O)[C@](C)(Cl)[C@@H]1O)Oc1ccccc1 (single isomer, unassigned) [40ii Diastereomer 2]	250 to 1000	1794	87	14544	294	> 50000	4934	197	
				CC(C)OC(=O)[C@H](C)N[P@](=O)(OC[C@H]1O[C@@H](n2ccc(=O)[nH]c2=O)[C@](C)(F)[C@@H]1O)Oc1ccccc1 [GS-7977]									0.00115
hydrolyzed	10	310	6527	CC(C)OC(=O)[C@H](C)N[P@@](=O)(OC[C@H]1O[C@@H](n2ccc(=O)[nH]c2=O)[C@](C)(F)[C@@H]1O)Oc1ccccc1 [PSI-7976, reference compound]									0.00115
